Source: ChEMBL document CHEMBL4382196, “Unraveling the Prenylation-Cancer Paradox in Multiple Myeloma with Novel Geranylgeranyl Pyrophosphate Synthase (GGPPS) Inhibitors” (J Med Chem, 2018)
Positions count from the first letter of the chain named. pEC50, pIC50: −log10 of the molar value. Values belong to the compound of their own block, whether it stands above or below them. Active and inactive are the calls of the source. The rule behind the calls is not given here.

Experiments:
[1] = tested on: RPMI-8226; experiment: Induction of apoptosis in human RPMI8226 cells assessed as early apoptotic cells at 10 nM after 72 hrs by APC Annexin V/eFluor-780-viability double staining-based FACS analysis (reference value: 3.31%); assay type: functional
[2] = tested on: RPMI-8226; experiment: Induction of apoptosis in human RPMI8226 cells at 10 nM after 72 hrs in presence of GGOH by APC Annexin V/eFluor-780-viability double staining-based FACS analysis; assay type: functional, cell-based
[3] = tested on: RPMI-8226; experiment: Induction of apoptosis in human RPMI8226 cells assessed as necrotic cells at 10 nM after 72 hrs by APC Annexin V/eFluor-780-viability double staining-based FACS analysis (reference value: 3.60%); assay type: functional
[4] = tested on: RPMI-8226; experiment: Induction of apoptosis in human RPMI8226 cells assessed as viable cells at 10 nM after 72 hrs by APC Annexin V/eFluor-780-viability double staining-based FACS analysis (reference value: 87.3%); assay type: functional; settings: RPMI-8226, 72 h, read-out: Activity
[5] = tested on: RPMI-8226; experiment: Induction of apoptosis in human RPMI8226 cells assessed as late apoptotic cells at 10 nM after 72 hrs by APC Annexin V/eFluor-780-viability double staining-based FACS analysis (reference value: 5.80%); assay type: functional
[6] = tested on: RPMI-8226; experiment: cells; settings: Homo sapiens, RPMI-8226, 72 h
[7] = target: Geranylgeranyl pyrophosphate synthase (Homo sapiens, UniProt O95749, Y246D)
Sequence of Geranylgeranyl pyrophosphate synthase (Homo sapiens, UniProt O95749, Y246D) (O95749 whole entry Y246D): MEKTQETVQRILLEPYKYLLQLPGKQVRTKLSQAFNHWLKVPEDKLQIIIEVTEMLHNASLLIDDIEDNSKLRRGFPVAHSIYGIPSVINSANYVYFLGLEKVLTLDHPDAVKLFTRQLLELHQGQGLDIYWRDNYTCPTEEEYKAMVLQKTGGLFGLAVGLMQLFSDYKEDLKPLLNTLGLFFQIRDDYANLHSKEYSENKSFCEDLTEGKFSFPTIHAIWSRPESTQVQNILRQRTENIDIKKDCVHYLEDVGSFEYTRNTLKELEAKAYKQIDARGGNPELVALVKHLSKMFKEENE

[8] = species on record: Homo sapiens; experiment: Selectivity ratio of IC50 for human FPPS to IC50 for human N-terminal His6-tagged GGPPS
[9] = target: T1, Geranylgeranyl pyrophosphate synthase (Homo sapiens) (UniProt O95749); experiment: Inhibition of human N-terminal His6-tagged GGPPS expressed in Escherichia coli BL21(DE3) at 1 uM using [14C]-IPP and FPP as substrates after 10 mins by scintillation counting relative to control
T1 sequence (whole entry): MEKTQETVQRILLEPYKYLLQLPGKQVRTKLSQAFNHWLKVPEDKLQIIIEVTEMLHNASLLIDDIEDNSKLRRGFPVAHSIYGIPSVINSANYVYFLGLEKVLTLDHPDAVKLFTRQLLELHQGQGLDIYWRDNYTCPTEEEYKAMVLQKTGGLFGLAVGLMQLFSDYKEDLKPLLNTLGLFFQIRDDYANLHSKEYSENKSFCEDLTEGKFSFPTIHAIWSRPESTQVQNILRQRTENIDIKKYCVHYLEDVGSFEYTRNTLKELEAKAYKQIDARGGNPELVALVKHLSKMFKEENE

[10] = target: T2, Farnesyl pyrophosphate synthase (Homo sapiens) (UniProt P14324); experiment: Inhibition of human FPPS at 1 uM using [14C]-IPP and […] after 10 mins by scintillation counting relative to control
T2 sequence (whole entry): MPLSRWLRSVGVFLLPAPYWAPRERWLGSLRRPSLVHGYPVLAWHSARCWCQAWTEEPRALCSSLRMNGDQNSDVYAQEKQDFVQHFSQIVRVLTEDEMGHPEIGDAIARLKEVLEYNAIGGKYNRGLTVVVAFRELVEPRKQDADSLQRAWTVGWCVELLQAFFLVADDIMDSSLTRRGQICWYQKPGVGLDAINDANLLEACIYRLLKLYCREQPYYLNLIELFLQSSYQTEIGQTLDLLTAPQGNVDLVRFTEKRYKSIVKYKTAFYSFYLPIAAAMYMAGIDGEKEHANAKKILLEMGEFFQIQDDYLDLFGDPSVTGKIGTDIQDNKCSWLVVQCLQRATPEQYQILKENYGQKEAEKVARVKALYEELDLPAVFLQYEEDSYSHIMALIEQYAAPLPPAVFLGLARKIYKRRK

[11] = target: T3, Farnesyl pyrophosphate synthase (Homo sapiens, UniProt P14324); experiment: Inhibition of human FPPS using [14C]-IPP and […] after 10 mins by scintillation counting
T3 sequence (P14324 whole entry): T2 sequence (whole entry)

[12] = target: T4, Geranylgeranyl pyrophosphate synthase (Homo sapiens, UniProt O95749)
T4 sequence (O95749 whole entry): T1 sequence (whole entry)

[13] = tested on: T5, Geranylgeranyl pyrophosphate synthase (Homo sapiens), O95749 [Y246D]; experiment: Binding affinity to human N-terminal His6-tagged GGPPS Y246D mutant expressed in Escherichia coli BL21(DE3) assessed as enzyme-inhibitor complex formation by measuring thermal stability in presence of Mg2+ ions by differential scanning fluorimetry
T5 sequence (whole entry): T1 sequence (whole entry) with Y246D

[14] = target: T1, Geranylgeranyl pyrophosphate synthase (Homo sapiens); experiment: Inhibition of human N-terminal His6-tagged GGPPS expressed in Escherichia coli BL21(DE3) at 10 uM using [14C]-IPP and FPP as substrates after 10 mins by scintillation counting
[15] = target: T2, Farnesyl pyrophosphate synthase (Homo sapiens); experiment: Inhibition of human FPPS at 10 uM using [14C]-IPP and […] after 10 mins by scintillation counting
[16] = tested on: RPMI-8226; experiment: Antiproliferative activity against human RPMI8226 cells at 10 uM after 72 hrs by MTT assay; assay type: functional, cell-based

SMILES: CC(C)C[C@H](NC(=O)[C@H](Cc1ccccc1)NC(=O)c1cnccn1)B(O)O [BORTEZOMIB]
Activity [1]: 0.26% | Activity [2]: Active | Activity [3]: 20.1% | viability at 0.01 µM [4]: 0.92% | Activity [5]: 78.7%

pEC50 [6]: 6.30 | pIC50 [7]: 7.41 | Ratio IC50 [8]: 30
SMILES: O=C(Nc1cccc(-c2nc(NC(P(=O)(O)O)P(=O)(O)O)c3ccsc3n2)c1)c1ccccc1

inhibition [9]: 40% | inhibition [10]: 70% | pIC50 [11]: 6.10 | pIC50 [12]: < 6.00
SMILES: O=P(O)(O)C(Nc1ncnc2sccc12)P(=O)(O)O

pIC50 [7]: 7.04
SMILES: COc1ccc(C(=O)Nc2cccc(-c3nc(NC(P(=O)(O)O)P(=O)(O)O)c4ccsc4n3)c2)cc1

Activity [13]: Active | inhibition [10]: 20% | pIC50 [11]: < 6.00 | pIC50 [12]: 7.38
SMILES: O=C(Nc1cccc(-c2nc(NC(P(=O)(O)O)P(=O)(O)O)c3ccsc3n2)c1)c1ccc(F)cc1

pIC50 [11]: 6.26
SMILES: O=P(O)(O)C(Nc1nc(-c2ccccc2)nc2sccc12)P(=O)(O)O

inhibition [14]: inactive | inhibition [15]: inactive
SMILES: O=C(Nc1cccc(-c2cc3c(NC(P(=O)(O)O)P(=O)(O)O)ncnc3s2)c1)c1ccccc1
Activity [16]: inactive
